Laboratory results from US20240082263A1, “PHARMACEUTICAL COMPOSITION FOR COMBINATION THERAPY COMPRISING MELATONIN AND PROSTAGLANDIN E2 FOR TREATING INTESTINAL EPITHELIAL INJURY AS AN ACTIVE INGREDIENT” (PUSAN NATIONAL UNIVERSITY INDUSTRY-UNIVERSITY COOPERATION …, priority 2022, published 2024).

Experiments:
Format in all cases: cell-based
[1] = test system: Mouse-derived small intestinal epithelial organoids; experiment: Microarray gene expression of revival stem cell markers in organoids; conditions: melatonin 500 μm, PGE2 100 nM, alone or in combination, 5 days
Method: (§1) Mouse-derived small intestinal epithelial organoids were obtained as follows. First, small intestine tissue (duodenum about 10-15 cm) was isolated from 8-week-old C57BL/6N mice, and the intestinal lumen was washed with PBS using a 1 ml pipette tip, and the tissue was opened with the lumen facing up, and the remaining mucus, food, and intestinal villi were scraped off and removed. Thereafter, about 25 ml of PBS was filled in a 50 ml tube, and the intestinal tissue was cut to a length of about 2 to 4 mm and washed by shaking vigorously (repeated about 3 to 4 times). The washed intestinal tissue was suspended in 20 ml of Gentle cell dissociation reagent (100-0485, stemcell technologies) and reacted for 15 to 20 minutes while shaking at 20 rpm at room temperature. After the reaction was completed, crypts were separated from the intestinal tissue by vortexing at maximum speed for 5 seconds, and the tissue was removed and centrifuged at 290 g for 5 minutes. The collected cell pellet was resuspended in 10 ml of PBS, centrifuged at 290 g for 5 minutes, and then the cell pellet was suspended in DMEM/F12 medium to confirm the number of crypts. About 500 crypts per 24 well are mixed with 20 μl of cell culture medium (IntestiCult™ Organoid Growth Medium for Mouse, 05005, stemcell technologies) and 20 μl of Matrigel (354230, corning), planted in a dome shape in the center of the well, and placed in a cell culture incubator. After standing for 10 minutes and waiting for the gel to harden, 750 μl of IntestiCult was added and cultured.
The obtained mouse-derived small intestinal epithelial organoids were treated with melatonin (500 μm, 14427, Cayman) and PGE2 (prostaglandin E2, 100 nM; 14010, Cayman) alone or in combination for 5 days, and microarray was performed to track gene expression changes. RNA was extracted from the organoids using the RNeasy Kit (Qiagen), cDNA was synthesized using the GeneChip WT (Whole Transcript) Amplification kit, and analyzed using the Clariom™ S Affymetrix GeneChip Array (Affymetrix).

[2] = test system: Human-derived intestinal epithelial organoids; experiment: Quantitative PCR of Clusterin (CLU) expression in organoids; conditions: same concentrations as in the mouse experiment, FIG. 3
Method: Human-derived intestinal epithelial organoids were treated with melatonin and its analogues and PGE2 to confirm whether revival stem cells were induced as observed in mouse intestinal organoids. In order to obtain intestinal epithelial organoids, donated human colon tissue was cut into a size of about 1 cm 2, placed in PBS containing gentamicin (10 μg/ml, Gibco), and allowed to stand at 4° C. for 30 minutes. Then, the tissue was taken out and the mucous layer was scraped off using forceps, and the process of shaking and washing in PBS was repeated 5 to 6 times, as in the case of mice. After washing, the tissue was put into 25 ml of Gentle cell dissociation reagent and reacted by shaking at 200 rpm for 20 minutes at 37° C. After vortexing at the maximum speed, the crypts were separated and cultured by washing in the same process as in mice. At this time, IntestiCult™ Organoid Growth Medium for Human (06010, stemcell technologies) was used as the culture medium. The obtained human intestinal epithelial organoids were treated alone or in combination with melatonin, 8M-PDOT, and PGE2 at the same concentrations as in the mouse experiment, and then the expression level of Clusterin (CLU) was compared through quantitative PCR. […]

[3] = test system: mouse small intestine epithelial organoids; experiment: Flow cytometry of Ly6a-expressing cells in organoids; conditions: FIG. 2; for revival stem cell induction (ratio of Ly6a-expressing cells): flow cytometry, 2-iodomelatonin 200 μM, 8M-PDOT 200 μM, Butaprost 10 μM, Cay10598 10 μM, 5 days; for effect of receptor inhibitor on induction of revival stem cells: co-treated to PGE2 alone group and 8M-PDOT and PGE2 combined group, L-161,982 10 μM, PF-04418948 20 μM
Method: as §1
In addition, changes in the percentage of cells expressing Ly6a, a specific marker for revival stem cells, were evaluated by flow cytometry. For flow cytometry, mouse small intestine epithelial organoids were treated with melatonin (500 μM) and PGE2 (100 nM) alone or in combination for 5 days, and the organoids were reacted with TrypLE™ Express Enzyme (Thermo Fisher) for 5 minutes at 37° C. to produce single cells. Thereafter, the Ly6a antibody (12-5981-82, Thermo Fisher) fluorescently labeled with PE was diluted 1:250 in PBS containing 3% BSA, and 200 μl of the diluted solution was mixed with the single celled sample and allowed to stand in a dark room at 4° C. for 1 hour. Then, each sample was washed with PBS (300 g, centrifuged for 5 minutes) and immediately analyzed with an Accuri C6 flow cytometer.
In order to further specify the mechanism of inducing revival stem cells, mouse-derived intestinal epithelial organoids were treated with a combination of various melatonin analogues and a specific agonist of the PGE2 receptor. […]

SMILES | Cldn4 expression FC (fold change) vs control [1] | Clu expression FC (fold change) vs control [1] | Ly6a expression FC (fold change) vs control [1] | revival stem cell induction (ratio of Ly6a-expressing cells) [3] | effect of receptor inhibitor on induction of revival stem cells [3] | other results
CCCCC[C@H](O)/C=C/[C@H]1[C@H](O)CC(=O)[C@@H]1C/C=C\CCCC(=O)O [PGE2, prostaglandin E2] | 1.9264 | 1.7590 | 9.7349 |  |  | CLU expression [2]: increased
O=C1CC[C@H](/C=C/[C@@H](O)Cc2ccccc2)N1CCCCCCc1nn[nH]n1 [Cay10598] |  |  |  | induction effect similar to or higher than that of PGE2 |  | 
CCCC1([C@H](O)C/C=C/[C@H]2[C@H](O)CC(=O)[C@@H]2CCCCCCC(=O)OC)CCC1 [Butaprost] |  |  |  | did not show a specific induction effect |  | 
COc1ccc2cc(OCC3(C(=O)O)CN(C(=O)c4ccc(F)cc4)C3)ccc2c1 [PF-04418948] |  |  |  |  | no effect | 
CCCCc1nn(-c2ccccc2C(F)(F)F)c(=O)n1Cc1ccc(-c2ccccc2S(=O)(=O)NC(=O)c2sccc2C)cc1 [L-161,982] |  |  |  |  | greatly suppressed | 
COc1ccc2[nH]cc(CCNC(C)=O)c2c1 [melatonin] | 1.0013 | 1.2252 | 1.1646 |  |  | 
